What follows are compounds tested against T1, farnesol X receptor (FXR) (Homo sapiens, UniProt Q96RI1) (assay: Farnesol X receptor (FXR) reporter gene assay (dual luciferase) in HepG2 cells). Conditions: dose 10 uM; HepG2 cells, drug treatment 24 hours; firefly/renilla luciferase ratio, Con = 1.00.
T1 construct: endogenous in cells; host or cells: HepG2
T1 sequence (Q96RI1 1-486): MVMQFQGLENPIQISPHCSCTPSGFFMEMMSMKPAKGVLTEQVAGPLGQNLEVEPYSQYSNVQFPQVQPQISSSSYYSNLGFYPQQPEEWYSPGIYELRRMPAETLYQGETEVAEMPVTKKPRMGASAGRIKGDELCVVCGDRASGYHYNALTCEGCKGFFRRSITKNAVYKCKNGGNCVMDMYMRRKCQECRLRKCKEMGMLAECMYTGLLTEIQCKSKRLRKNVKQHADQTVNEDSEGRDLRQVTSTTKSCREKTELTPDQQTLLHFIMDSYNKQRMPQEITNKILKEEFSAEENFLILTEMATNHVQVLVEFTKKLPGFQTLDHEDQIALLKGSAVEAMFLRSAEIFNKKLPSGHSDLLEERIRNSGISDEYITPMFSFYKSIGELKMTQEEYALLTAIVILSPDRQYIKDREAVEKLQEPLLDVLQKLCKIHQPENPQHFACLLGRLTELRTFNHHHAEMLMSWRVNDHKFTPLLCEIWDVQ
Format: cell-based
Procedure: HepG2 cells were purchased from ATCC (Manassas, VA, USA) and cultured in Dulbecco's modified Eagle's medium (DMEM; Hyclone) containing 10% fetal bovine serum (FBS, Hyclone, Logan, UT, USA), 50 units/mL penicillin (Hyclone) and 50 μg/mL streptomycin (Hyclone). All cells were cultured to have a confluency of about 80% to 90% under the conditions of 37° C. and 5% Co2.
In order to measure FXR transcription factor activity, HepG2 cells (1×10^5 cells/well) were cultured in a 48-well cell culture plate (SPL Life Science Co., Gyeonggido, Korea) for 20 hours and then transduced using Lipofectamin L3000 (Invitrogen, San Diego, CA, USA). Luciferase is an enzyme that catalyzes light-emitting reactions. A plasmid in which the firefly luciferase gene was fused to farnesol X receptor (FXR) and a plasmid in which the renilla luciferase gene was fused to thymidine kinase (TK) were used for transduction. Reacted were 25 μL of serum and antibiotic-free Opti-MEM® (Life Technologies, Grand Island, NY) and 0.5 μL of Lipofectamin L3000 per 0.5 μg of FXR-firefly luciferase plasmid and 10 ng of TK-renilla luciferase plasmid, and the cells were reacted with the reaction mixture for 24 hours. Thereafter, DMEM medium containing 0.1% serum was treated with a drug for 24 hours. After the reaction was completed, the drug-treated culture medium was discarded, and lysis buffer was added at 0.4 ml/well to remove the cells, then the cells were dispensed into a 96-well white plate (SPL Life Science Co.), and the luminescence level was measured using the Dual-glo Luciferase Assay System (Promega, Madison, WI, USA). For the firefly luciferase activity (to see the level of FXR expression) and renilla luciferase activity (to provide a reference value by showing constant expression), the luminescence level was measured using the GloMax Multi Detection System (Promega) and then the relative ratio (firefly luciferase activity/renilla luciferase activity) was calculated.

| SMILES | fold induction at 10 µM |
| --- | --- |
| O=C(O)CNC(=O)/C=C/c1ccc(O)cc1 [KS-013, (E)-(3-(4-hydroxyphenyl)acryloyl)glycine] | 1.46 |
| CCOC(=O)CNC(=O)/C=C/c1ccc(OCc2c(-c3ccccc3)noc2C)cc1 [KS-012, ethyl (E)-(3-(4-((5-methyl-3-phenylisoxazol-4-yl)methoxy)phenyl)acryloyl)glycinate] | 1.61 |
| O=C(O)CNC(=O)/C=C/c1ccc(OCc2cc(F)c(F)cc2F)cc1 [KS-021, (E)-(3-(4-((2,4,5-trifluorobenzyl)oxy)phenyl)acryloyl)glycine] | 2.01 |
| O=C(O)CNC(=O)/C=C/c1ccc(OCc2ccc(OC(F)(F)F)cc2)cc1 [KS-015, (E)-(3-(4-((4-(trifluoromethoxy)benzyl)oxy)phenyl)acryloyl)glycine] | 2.65 |
| CCOC(=O)CNC(=O)/C=C/c1ccc(OCc2cccc([N+](=O)[O-])c2)cc1 [KS-008, ethyl (E)-(3-(4-((3-nitrobenzyl)oxy)phenyl)acryloyl)glycinate] | 1.5 |
| O=C(O)CNC(=O)/C=C/c1ccc(OCc2cccc([N+](=O)[O-])c2)cc1 [KS-020, (E)-(3-(4-((3-nitrobenzyl)oxy)phenyl)acryloyl)glycine] | 1.39 |
| CCOC(=O)CNC(=O)/C=C/c1ccc(OCc2cccc(OC(F)(F)F)c2)cc1 [KS-007, ethyl (E)-(3-(4-((3-(trifluoromethoxy)benzyl)oxy)phenyl)acryloyl)glycinate] | 1.02 |
| CCOC(=O)CNC(=O)/C=C/c1ccc(O)cc1 [KS-001, ethyl (E)-(3-(4-hydroxyphenyl)acryloyl)glycinate] | 1.22 |
| O=C(O)CNC(=O)/C=C/c1ccc(OCc2ccccc2)cc1 [KS-014, (E)-(3-(4-(benzyloxy)phenyl)acryloyl)glycine] | 1.42 |
| CCOC(=O)CNC(=O)/C=C/c1ccc(OCc2cc(F)c(F)cc2F)cc1 [KS-009, ethyl (E)-(3-(4-((2,4,5-trifluorobenzyl)oxy)phenyl)acryloyl)glycinate] | 1.44 |
| CCOC(=O)CNC(=O)/C=C/c1ccc(OCc2ccc(F)cc2)cc1 [KS-005, ethyl (E)-(3-(4-((4-fluorobenzyl)oxy)phenyl)acryloyl)glycinate] | 1.21 |

Results, then the compound that gave them:

| fold induction at 10 µM | SMILES |
| --- | --- |
| 3.34 | CC(C)c1onc(-c2c(Cl)cccc2Cl)c1COc1ccc(/C=C/C(=O)NCC(=O)O)cc1 [KS-022, (E)-(3-(4-((3-(2,6-dichlorophenyl)-5-isopropylisoxazol-4-yl)methoxy)phenyl)acryloyl)glycine] |
| 1.2 | COC(=O)CCNC(=O)/C=C/c1ccc(OCc2c(-c3ccccc3)noc2C)cc1 [KS-045, methyl (E)-3-(3-(4-((5-methyl-3-phenylisoxazol-4-yl)methoxy)phenyl)acrylamido)propanoate] |
| 1.13 | Cc1onc(-c2ccccc2)c1COc1ccc(/C=C/C(=O)NCCC(=O)O)cc1 [KS-048, (E)-3-(3-(4-((5-methyl-3-phenylisoxazol-4-yl)methoxy)phenyl)acrylamido)propanoic acid] |
| 1.04 | CCOC(=O)[C@H](C)NC(=O)/C=C/c1ccc(OCc2c(-c3ccccc3)noc2C)cc1 [KS-027, ethyl (E)-(3-(4-((5-methyl-3-phenylisoxazol-4-yl)methoxy)phenyl)acryloyl)-L-alaninate] |
| 9 | CC(C)c1onc(-c2c(Cl)cccc2Cl)c1COc1ccc(/C=C/C(=O)N[C@@H](Cc2ccccc2)C(=O)O)cc1 [KS-040, (E)-(3-(4-((3-(2,6-dichlorophenyl)-5-isopropylisoxazol-4-yl)methoxy)phenyl)acryloyl)-L-phenylalanine] |
| 1.89 | CCOC(=O)[C@@H](NC(=O)/C=C/c1ccc(OCc2c(-c3c(Cl)cccc3Cl)noc2C)cc1)C(C)C [KS-032, ethyl (E)-(3-(4-((3-(2,6-dichlorophenyl)-5-methylisoxazol-4-yl)methoxy)phenyl)acryloyl)-L-valinate] |
| 2 | COC(=O)[C@@H](C)NC(=O)/C=C/c1ccc(OCc2c(-c3c(Cl)cccc3Cl)noc2C)cc1 [KS-050, methyl (E)-(3-(4-((3-(2,6-dichlorophenyl)-5-methylisoxazol-4-yl)methoxy)phenyl)acryloyl)-D-alaninate] |
| 3.23 | Cc1onc(-c2c(Cl)cccc2Cl)c1COc1ccc(/C=C/C(=O)N[C@@H](Cc2ccccc2)C(=O)O)cc1 [KS-041, (E)-(3-(4-((3-(2,6-dichlorophenyl)-5-methylisoxazol-4-yl)methoxy)phenyl)acryloyl)-L-phenylalanine] |
| 1.34 | COC(=O)[C@@H](C)NC(=O)/C=C/c1ccc(OCc2c(-c3ccccc3)noc2C)cc1 [KS-051, methyl (E)-(3-(4-((5-methyl-3-phenylisoxazol-4-yl)methoxy)phenyl)acryloyl)-D-alaninate] |
| 0.9 | Cc1onc(-c2ccccc2)c1COc1ccc(/C=C/C(=O)N[C@H](C)C(=O)O)cc1 [KS-054, (E)-(3-(4-((5-methyl-3-phenylisoxazol-4-yl)methoxy)phenyl)acryloyl)-D-alanine] |
| 8.91 | CC(C)c1onc(-c2c(Cl)cccc2Cl)c1COc1ccc(/C=C/C(=O)N[C@H](C(=O)O)C(C)C)cc1 [KS-034, (E)-(3-(4-((3-(2,6-dichlorophenyl)-5-isopropylisoxazol-4-yl)methoxy)phenyl)acryloyl)-L-valine] |
| 1.26 | CCOC(=O)[C@H](C)NC(=O)/C=C/c1ccc(OCc2c(-c3c(Cl)cccc3Cl)noc2C)cc1 [KS-026, ethyl (E)-(3-(4-((3-(2,6-dichlorophenyl)-5-methylisoxazol-4-yl)methoxy)phenyl)acryloyl)-L-alaninate] |
| 1.28 | Cc1onc(-c2c(Cl)cccc2Cl)c1COc1ccc(/C=C/C(=O)N[C@H](C)C(=O)O)cc1 [KS-053, (E)-(3-(4-((3-(2,6-dichlorophenyl)-5-methylisoxazol-4-yl)methoxy)phenyl)acryloyl)-D-alanine] |

Same assay, conditions: statement on Table 4 data

| SMILES | FXR activating effect compared with GW4064 |
| --- | --- |
| CC(C)c1onc(-c2c(Cl)cccc2Cl)c1COc1ccc(/C=C/C(=O)N[C@@H](Cc2ccccc2)C(=O)O)cc1 [KS-040, (E)-(3-(4-((3-(2,6-dichlorophenyl)-5-isopropylisoxazol-4-yl)methoxy)phenyl)acryloyl)-L-phenylalanine] | superior to GW4064 |
| CC(C)c1onc(-c2c(Cl)cccc2Cl)c1COc1ccc(/C=C/C(=O)N[C@H](C(=O)O)C(C)C)cc1 [KS-034, (E)-(3-(4-((3-(2,6-dichlorophenyl)-5-isopropylisoxazol-4-yl)methoxy)phenyl)acryloyl)-L-valine] | superior to GW4064 |

From patent publication US12552755B2, “Cinnamic amide derivative having FXR activating effect, pharmaceutical composition containing the same as active ingredient, and method for preparing the same” (KYUNGSUNG UNIVERSITY INDUSTRY COOPERATION FOUNDATION, priority 2019, dated 2026)
